Reference: ChEMBL document CHEMBL5344474, “Molecular editing of NSC-666719 enabling discovery of benzodithiazinedioxide-guanidines as anticancer agents” (RSC Med Chem, 2024)

Columns and labels:
MCF7 = assay: Antiproliferative activity against human MCF7 cells incubated for 72 hrs by MTT assay; conditions: MCF7, 72 h
MDA-MB-231 = assay: Antiproliferative activity against human MDA-MB-231 cells incubated for 72 hrs by MTT assay; conditions: MDA-MB-231, 72 h
[1] = Selectivity index, ratio of IC50 for HEK293 cells to IC50 for human MCF7 cells; conditions: HEK293 cells versus MCF7 cells
[2] = Selectivity index, ratio of IC50 for HEK293 cells to IC50 for human MDA-MB-231 cells; conditions: HEK293 cells versus MDA-MB-231 cells
[3] = Selectivity index, ratio of IC50 for HEK293 cells to IC50 for human HCT-116 cells; conditions: HEK293 cells versus HCT-116 cells

IC50 (MCF7) | IC50 (MDA-MB-231) | Structure (SMILES) | selectivity ratio [1] | selectivity ratio [2] | selectivity ratio [3]
6.3 µM | 7 µM | Cc1cc(S(=O)(=O)Nc2nnc(Nc3ccccc3)[nH]2)c(S)cc1Cl | > 65 | > 65 | > 65
7.4 µM | 8.4 µM | Cc1cc(S(=O)(=O)Nc2nc(Nc3ccc(Cl)cc3)n[nH]2)c(S)cc1Cl |  |  | 
7.8 µM | 8.5 µM | COc1ccc(Nc2n[nH]c(NS(=O)(=O)c3cc(C)c(Cl)cc3S)n2)cc1 | > 65 | > 65 | > 65
7.5 µM | 8.6 µM | Cc1cc(S(=O)(=O)Nc2nc(Nc3cccc4ccccc34)n[nH]2)c(S)cc1Cl | > 65 | > 65 | > 65
7.5 µM | 8.6 µM | Cc1cc(S(=O)(=O)Nc2nc(Nc3ccc4cc(O)ccc4c3)n[nH]2)c(S)cc1Cl | > 65 | > 65 | > 65
6.5 µM | 7.7 µM | COc1ccc(Nc2n[nH]c(NS(=O)(=O)c3cc(C)c(Cl)cc3S)n2)c(OC)c1OC | > 65 | > 65 | > 65
7.7 µM | 8.5 µM | COc1ccc2ccccc2c1Nc1n[nH]c(NS(=O)(=O)c2cc(C)c(Cl)cc2S)n1 | > 65 | > 65 | > 65
3.5 µM | 5.8 µM | Cc1cc2c(cc1Cl)SC(/N=C(/N)Nc1ccc3ccccc3c1)=NS2(=O)=O | > 65 | > 65 | > 65
3.3 µM | 5.4 µM | COc1ccc(N/C(N)=N\C2=NS(=O)(=O)c3cc(C)c(Cl)cc3S2)cc1 | > 65 | > 65 | > 65
4 µM | 4.8 µM | Cc1cc(S(=O)(=O)Nc2nc(Nc3ccnc4cc(Cl)ccc34)n[nH]2)c(S)cc1Cl | > 65 | > 65 | > 65
7.2 µM | 8.6 µM | Cc1cc(S(=O)(=O)Nc2nc(Nc3cccc4ncccc34)n[nH]2)c(S)cc1Cl | > 65 | > 65 | > 65
5.5 µM | 6.6 µM | Cc1cc2c(cc1Cl)SC(/N=C(/N)Nc1ccc(Cl)cc1)=NS2(=O)=O | > 65 | > 65 | > 65
7.8 µM | 8.6 µM | Cc1cc(S(=O)(=O)Nc2nc(Nc3cnc4ccccc4c3)n[nH]2)c(S)cc1Cl | > 65 | > 65 | > 65
7.4 µM | 8.7 µM | Cc1cc(S(=O)(=O)Nc2nc(Nc3cccc4cnccc34)n[nH]2)c(S)cc1Cl | > 65 | > 65 | > 65
7.1 µM | 8.2 µM | Cc1cc(S(=O)(=O)Nc2nc(Nc3ccc4ncccc4c3)n[nH]2)c(S)cc1Cl | > 65 | > 65 | > 65
8.2 µM | 8.8 µM | Cc1cc(S(=O)(=O)Nc2nc(Nc3cccc4cccnc34)n[nH]2)c(S)cc1Cl | > 65 | > 65 | > 65
7.6 µM | 8.2 µM | Cc1cc(S(=O)(=O)Nc2nc(Nc3ccc4cnccc4c3)n[nH]2)c(S)cc1Cl | > 65 | > 65 | > 65
3.1 µM | 3.9 µM | Cc1cc(S(=O)(=O)Nc2nc(Nc3ccc(Br)cc3)n[nH]2)c(S)cc1Cl | > 65 | > 65 | > 65
8.4 µM | 9.2 µM | COc1cc2nccc(Nc3n[nH]c(NS(=O)(=O)c4cc(C)c(Cl)cc4S)n3)c2cc1OC | > 65 | > 65 | > 65
